# Laboratory results: patent US5853731A, “Thromboxane A2 Receptor antagonism and antioxidant action of cinnamophilin and its derivatives, their pharmaceutical compositions and uses” (National Science Council, priority 1997, dated 1998)
# Where two headings read alike, the source gives them in different places.
# Key:
# [1] = test system: human platelet-rich plasma; assay: Aggregation test of human platelet-rich plasma; type: cell-based; conditions: for IC50: Homo sapiens, Platelet
# Method: C. Platelet aggregation and ATP release reaction test
# The method reported by Born (J. Physiol. 168, 178, 1963) was used to determine the platelet aggregation by a Lumi-aggregometer (Model 1020, Payton, Canada). Platelet suspension (0.4 ml) was added into a small glass tube coated with silicone, and stirred at 900 rpm with a small magnetic stirrer. Unless otherwise specified, the antagonist was added 1 minute before the inducing agent, and all the reactions were carried out at 37° C. The aggregation was calculated by following formula: […]
# aggregation (% )=(light absorption before adding inducing agent-light absorption after adding inducing agent)/(light absorption before adding inducing agent-light absorption of Tyrode solution)×100%
# (5 μM), Adrenaline (10 μM),
# PGE2 formation = assay: Prostaglandin E2 formation caused by arachidonic acid (AA); type: cell-based; conditions: for Prostaglandin E2: caused by AA
# cAMP formation = cAMP formation caused by arachidonic acid (AA); type: cell-based; conditions: for cAMP: caused by AA
# [2] = Antioxidation (absorbance at 500 nm, FeSCN method)
# From the text: (Absorbance at 500 nm, using FeSCN method)
# rat thoracic aorta [3] = assay: Rat aortic contraction caused by norepinephrine and high potassium (KCl); type: cell-based, Wistar rat; conditions: for K+ contraction (%), Tonic: K+ (80 mM); for K+ contraction (%), Tonic / norepinephrine contraction (%), Phrase (phasic) / norepinephrine contraction (%), Tonic: 15 min; for norepinephrine contraction (%), Phrase (phasic) / norepinephrine contraction (%), Tonic: norepinephrine 3 μM
# Method: (§1) A. Rat Aortic Contraction
# (§2) Wistar rats of either sex weighing 250 g to 300 g were killed by a blow to the head. The thoracic aorta was isolated and excess fat and connective tissue were removed. Vessels were cut into rings of about 5 mm in length and mounted in organ baths containing 5 ml Krebs solution of the following composition (mM): NaCl (118.4), KCl (4.7), CaCl (1.9), MgSO4 (1.2), KH2 PO4 (1.2), NaHCO3 (25.0) and glucose (11.7). The tissue bath solution was maintained at 37° C. and gassed with 95% O2 :5% CO2 mixture. Two stainless steel hooks were inserted into the aortic lumen, one was fixed while the other was connected to a transducer. Aortae were equilibrated in the medium for 90 min with three changes of Krebs solution and maintained under an optimal tension of 1 g before specific experimental protocols were initiated.
# (§3) Contraction was recorded isometrically via a force-displacement transducer connected to a Grass polygraph. Aortae were allowed to preincubate for 15 minutes with cinnamophilin before generating the cumulative concentration-response curve with each agonist for 15-30 min at 3 min intervals. Results are expressed as a percentage of the maximal control response for each agonist.
# Rat aorta ring were preincubated with lignans or DMSO (0.1% control) at
# 37° C. for 15 min, then the inducer was added.
# rat thoracic aorta [4] = biological target: T1, rat thoracic aorta (Rattus norvegicus, UniProt P34978); assay: Rat aortic contraction caused by U-46619; type: cell-based, Wistar rat; conditions: for activity at 0.3 µM / activity at 1 µM / activity at 3 µM / activity at 10 µM: rat, read-out: Contraction (% of maximal contraction); for activity at 0.3 µM: cinnamophilin 0.3 μM; for activity at 1 µM: cinnamophilin 1 μM; for activity at 3 µM: cinnamophilin 3 μM; for activity at 10 µM: cinnamophilin 10 μM
# T1 construct: The thoracic aorta was isolated and excess fat and connective tissue were removed; from tissue; host or cells: thoracic aorta rings of Wistar rats
# T1 sequence (P34978 1-341): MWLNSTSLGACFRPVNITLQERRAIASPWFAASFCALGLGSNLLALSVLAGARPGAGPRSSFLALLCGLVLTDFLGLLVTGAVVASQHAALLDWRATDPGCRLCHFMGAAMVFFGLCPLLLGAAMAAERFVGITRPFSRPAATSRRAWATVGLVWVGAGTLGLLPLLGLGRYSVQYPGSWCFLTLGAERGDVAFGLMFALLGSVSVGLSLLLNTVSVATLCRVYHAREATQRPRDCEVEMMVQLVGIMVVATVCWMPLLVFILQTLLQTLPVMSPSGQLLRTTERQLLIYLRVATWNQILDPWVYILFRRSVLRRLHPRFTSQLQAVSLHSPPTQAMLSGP
# Method: as §1, §2, §3
# TXA2 receptor = assay: Large scale screening test: TXA2 receptor antagonism; type: biochemical
compound,measurement,setting,value
"COc1cc(CC(C)C(C)C(=O)c2ccc(O)c(OC)c2)ccc1O (stereo not shown) [Compound 1, cinnamophilin]",IC50,"[1]; human platelet-rich plasma, inducer A-23187 5 μM, read-out: IC50, platelet aggregation",> 30 µM
same,IC50,"[1]; human platelet-rich plasma, inducer ADP 5 μM, First Phrase, read-out: IC50, platelet aggregation, first phase",> 30 µM
same,IC50,"[1]; human platelet-rich plasma, inducer ADP 5 μM, Second Phrase, read-out: IC50, platelet aggregation, second phase",6 ± 0.6 µM
same,IC50,"[1]; human platelet-rich plasma, inducer U-46619 1 μM, read-out: IC50, platelet aggregation",3 ± 0.4 µM
same,IC50,"[1]; human platelet-rich plasma, inducer adrenaline 10 μM, First Phrase, read-out: IC50, platelet aggregation, first phase",> 30 µM
same,IC50,"[1]; human platelet-rich plasma, inducer adrenaline 10 μM, Second Phrase, read-out: IC50, platelet aggregation, second phase",7.6 ± 0.9 µM
same,IC50,"[1]; human platelet-rich plasma, inducer arachidonic acid (AA) 800 μM, read-out: IC50, platelet aggregation",5 ± 0.4 µM
same,IC50,"[1]; human platelet-rich plasma, inducer collagen, read-out: IC50, platelet aggregation",5.6 ± 0.6 µM
same,inhibition of U-46619 induced platelet aggregation,[1]; U-46619,potential inhibition
same,inhibition of second phase aggregation,"[1]; human platelet-rich plasma, ADP and adrenaline",inhibit second phase aggregation
same,inhibition of platelet aggregation,"[1]; induced by AA, ADP, collagen, U-46619, A-23187",potentially to inhibit the platelet aggregation
same,PGE2 level,"PGE2 formation; 0.03-10 μM, AA",increase PGE2 and cAMP levels
same,Prostaglandin E2,PGE2 formation; conc 0.01 μM,40 ± 10 ng/mL
same,Prostaglandin E2,PGE2 formation; conc 0.03 μM,75 ± 15 ng/mL
same,Prostaglandin E2,PGE2 formation; conc 0.1 μM,115 ± 15 ng/mL
same,Prostaglandin E2,PGE2 formation; conc 0.3 μM,155 ± 29 ng/mL
same,Prostaglandin E2,PGE2 formation; conc 1 μM,205 ± 19 ng/mL
same,Prostaglandin E2,PGE2 formation; conc 3 μM,245 ± 20 ng/mL
same,Prostaglandin E2,PGE2 formation; conc 10 μM,2665 ± 21 ng/mL
same,cAMP level,"cAMP formation; 0.03-10 μM, AA",increase PGE2 and cAMP levels
same,cAMP,cAMP formation; conc 1 μM,22 ± 3 pmol/mL
same,cAMP,cAMP formation; conc 3 μM,29 ± 3 pmol/mL
same,cAMP,cAMP formation; conc 10 μM,35 ± 2 pmol/mL
same,antioxidation capability,"[2]; 20 μM, compared with α-tocopherol at same concentration",lower than α-tocopherol at the same concentration
same,Absorbance at 500 nm,"[2]; 20 μM, induce time 0, control 0.047",0.045
same,Absorbance at 500 nm,"[2]; 20 μM, induce time 4, control 0.084",0.076
same,Absorbance at 500 nm,"[2]; 20 μM, induce time 7, control 0.201",0.146
same,Absorbance at 500 nm,"[2]; 20 μM, induce time 10, control 0.343",0.176
same,Absorbance at 500 nm,"[2]; 20 μM, induce time 16",0.346
same,Absorbance at 500 nm,"[2]; 20 μM, induce time 19",0.399
same,Absorbance at 500 nm,"[2]; 20 μM, induce time 22",0.508
same,Absorbance at 500 nm,"[2]; 20 μM, induce time 25",0.796
same,Absorbance at 500 nm,"[2]; 20 μM, induce time 28",1.301
same,inhibitory effect on fatty oil peroxidation,[2]; 40 μM,potential inhibitory effect on fatty oil peroxidation
same,Absorbance at 500 nm,"[2]; 40 μM, induce time 0, control 0.047",0.037
same,Absorbance at 500 nm,"[2]; 40 μM, induce time 4, control 0.084",0.056
same,Absorbance at 500 nm,"[2]; 40 μM, induce time 7, control 0.201",0.082
same,Absorbance at 500 nm,"[2]; 40 μM, induce time 10, control 0.343",0.116
same,Absorbance at 500 nm,"[2]; 40 μM, induce time 16",0.156
same,Absorbance at 500 nm,"[2]; 40 μM, induce time 19",0.204
same,Absorbance at 500 nm,"[2]; 40 μM, induce time 22",0.256
same,Absorbance at 500 nm,"[2]; 40 μM, induce time 25",0.282
same,Absorbance at 500 nm,"[2]; 40 μM, induce time 28",0.349
same,Absorbance at 500 nm,"[2]; 40 μM, induce time 31",0.405
same,Absorbance at 500 nm,"[2]; 40 μM, induce time 34",0.453
same,Absorbance at 500 nm,"[2]; 40 μM, induce time 37",0.525
same,Absorbance at 500 nm,"[2]; 40 μM, induce time 40",0.687
same,antioxidation capability versus control,[2]; compared with 0.5% DMSO as control,potential antioxidation capable comparing to 0.5% DMSO as control
same,"K+ contraction (%), Tonic",rat thoracic aorta [3]; conc 1 μM,60.2 ± 1.5%
same,"K+ contraction (%), Tonic",rat thoracic aorta [3]; conc 3 μM,36.6 ± 4.7%
same,"K+ contraction (%), Tonic",rat thoracic aorta [3]; conc 10 μM,5.2 ± 2.3%
same,"K+ contraction (%), Tonic",rat thoracic aorta [3]; conc 50 μM,4.5 ± 3.2%
same,phasic contractions,rat thoracic aorta [3]; noradrenaline and high potassium (80 mM),inhibited the phasic contractions
same,"norepinephrine contraction (%), Phrase (phasic)",rat thoracic aorta [3]; conc 3 μM,121.8 ± 7.2%
same,"norepinephrine contraction (%), Phrase (phasic)",rat thoracic aorta [3]; conc 5 μM,100.4 ± 9.7%
same,"norepinephrine contraction (%), Phrase (phasic)",rat thoracic aorta [3]; conc 10 μM,69.3 ± 4.0%
same,"norepinephrine contraction (%), Phrase (phasic)",rat thoracic aorta [3]; conc 50 μM,65.9 ± 11.3%
same,"norepinephrine contraction (%), Tonic",rat thoracic aorta [3]; conc 3 μM,90.1 ± 5.5%
same,"norepinephrine contraction (%), Tonic",rat thoracic aorta [3]; conc 5 μM,77.1 ± 5.7%
same,"norepinephrine contraction (%), Tonic",rat thoracic aorta [3]; conc 10 μM,27.9 ± 0.5%
same,"norepinephrine contraction (%), Tonic",rat thoracic aorta [3]; conc 50 μM,14.6 ± 1.5%
same,Kb,"rat thoracic aorta [4]; against U-46619, 0.5% DMSO as control, read-out: pA2, rat aortic contraction induced by U-46619 (converted)",0.0501 µM
same,activity at 0.3 µM,rat thoracic aorta [4]; U-46619 0.005 μM,0%
same,activity at 0.3 µM,rat thoracic aorta [4]; U-46619 0.01 μM,8 ± 2%
same,activity at 0.3 µM,rat thoracic aorta [4]; U-46619 0.02 μM,16 ± 4.9%
same,activity at 0.3 µM,rat thoracic aorta [4]; U-46619 0.05 μM,35 ± 2%
same,activity at 0.3 µM,rat thoracic aorta [4]; U-46619 0.1 μM,52 ± 3%
same,activity at 0.3 µM,rat thoracic aorta [4]; U-46619 0.2 μM,65 ± 4%
same,activity at 0.3 µM,rat thoracic aorta [4]; U-46619 0.5 μM,79 ± 2%
same,activity at 0.3 µM,rat thoracic aorta [4]; U-46619 1 μM,85 ± 4%
same,activity at 0.3 µM,rat thoracic aorta [4]; U-46619 2 μM,92 ± 4%
same,activity at 1 µM,rat thoracic aorta [4]; U-46619 0.02 μM,3%
same,activity at 1 µM,rat thoracic aorta [4]; U-46619 0.05 μM,11 ± 2%
same,activity at 1 µM,rat thoracic aorta [4]; U-46619 0.1 μM,22 ± 3%
same,activity at 1 µM,rat thoracic aorta [4]; U-46619 0.2 μM,35 ± 3.2%
same,activity at 1 µM,rat thoracic aorta [4]; U-46619 0.5 μM,53 ± 3.1%
same,activity at 1 µM,rat thoracic aorta [4]; U-46619 1 μM,55 ± 4%
same,activity at 1 µM,rat thoracic aorta [4]; U-46619 2 μM,81 ± 4%
same,activity at 1 µM,rat thoracic aorta [4]; U-46619 5 μM,88 ± 3%
same,activity at 3 µM,rat thoracic aorta [4]; U-46619 0.05 μM,0%
same,activity at 3 µM,rat thoracic aorta [4]; U-46619 0.1 μM,8 ± 3.7%
same,activity at 3 µM,rat thoracic aorta [4]; U-46619 0.2 μM,15 ± 4.3%
same,activity at 3 µM,rat thoracic aorta [4]; U-46619 0.5 μM,34 ± 5.6%
same,activity at 3 µM,rat thoracic aorta [4]; U-46619 1 μM,50 ± 5.6%
same,activity at 3 µM,rat thoracic aorta [4]; U-46619 2 μM,65 ± 5%
same,activity at 3 µM,rat thoracic aorta [4]; U-46619 5 μM,81 ± 3%
same,activity at 3 µM,rat thoracic aorta [4]; U-46619 10 μM,90 ± 3%
same,activity at 10 µM,rat thoracic aorta [4]; U-46619 0.2 μM,6 ± 4.3%
same,activity at 10 µM,rat thoracic aorta [4]; U-46619 0.5 μM,15 ± 3.9%
same,activity at 10 µM,rat thoracic aorta [4]; U-46619 1 μM,31 ± 3.8%
same,activity at 10 µM,rat thoracic aorta [4]; U-46619 2 μM,45 ± 3%
same,activity at 10 µM,rat thoracic aorta [4]; U-46619 5 μM,65 ± 5%
same,activity at 10 µM,rat thoracic aorta [4]; U-46619 10 μM,86 ± 4%
same,TXA2 receptor antagonizing property,TXA2 receptor,TXA2 receptor antagonizing properties
